Source: patent US11407736B2 (priority 2019, dated 2022)
Read-outs that look alike come from different tables or passages of the source.

Experiments:
U937 cells = assay: U937 cell necroptosis assay (TNFa + zVAD, CellTiter-Glo); format: cell-based, human; settings: Homo sapiens
Description: (§1) In this example, U937 and L929 cells were exposed to compounds of the present disclosure and a cell necroptosis assay was conducted to evaluate the compounds' activity against human RIP1 and murine RIP1.
(§2) U937 and L929 cells were obtained from the American Type Culture Collection (Manassa, Va., USA). Both cells were maintained in logarithmic growth phase in complete RPMI 1640 media (Sigma, ST Louis, Mo., USA) supplemented with 10% fetal bovine serum (Sigma, ST Louis, Mo., USA) at 37° C. with 5% CO2. For necroptosis assay, L929 cells were plated for 18 h in 100 μL/well medium at 10K cells/well in Costar 96-well black clear-bottom plates (Fisher Scientific, Hampton, N.H., USA); U937 cells were plated on the day of the assay in 50 4/well medium containing 60 uM zVAD-fink (Lonza, Basel, Switzerland) at 50K cells/well. Medium from L929 cells were removed from the 96-well plates and replaced with 50 μL/well new medium containing 40 uM zVAD-fink. Each compound of the present disclosure evaluated in this example was serially diluted in DMSO from 2.5 mM in 4-fold dilutions, and then diluted 1:125 in complete medium. 50 μL/well 2× of the compound was then added to the cells in the plates. The cells were pre-incubated with the compound for 1 hour at 37° C. with 5% CO2 and before addition of 10 μL/well 1 1×TNFa (Peprotech, Rocky Hill, N.J., USA) to give a final concentration of 2 ng/mL for TNFa. The relative amount of necroptosis cells was determined by luminescent using a Wallac Victor2 Luminometer (PerkinElmer, Waltham, Mass., USA) and a CellTiter-Glo® Luminescent Cell Viability Reagent Assay (Promega, Madison, Wis., USA) added per manufacturer instructions after 18 hours of TNFa stimulation at 37° C. with 5% CO2. This example establishes that embodiments of the compounds described herein have unexpectedly potent activity against human RIP1 and murine RIP1, which allows their assessment in in vivo mouse models of disease.

RIPK1 = RIPK1 (Homo sapiens (Human), UniProt Q13546); assay: RIPK1 ADP-Glo biochemical kinase assay
Description: The final reaction volume was 5.0ul.
Adding 5 μl of ADP-Glo™ terminated the reaction.

L929 cells = assay: L929 cell necroptosis assay (TNFa + zVAD, CellTiter-Glo); format: cell-based, murine; settings: Mus musculus, L929, L929 cells, TNFa + zVAD; read-out: L929-CTG-recovery, L929, TNFa + zVAD (IC50)
Description: as §1
as §2, with “The cells were pre-incubated with the compound for 1 hour at 37° C. with 5% CO2 and before addition of 10 μL/well 1 1×TNFa (Peprotech, Rocky Hill, N.J., USA) to give a final concentration of 2 ng/mL for TNFa.” left out, “CO2.” for “CO2. This example establishes that embodiments of the compounds described herein have unexpectedly potent activity against human RIP1 and murine RIP1, which allows their assessment in in vivo mouse models of disease.”

[1] = U-937, U937 cells, TNFa + zVAD, read-out: U937 Zvad TNF CTG Recovery, U937, TNFa + zVAD (IC50)
[2] = read-out: RIPK1 ADP-Glo Kinase (IC50)
[3] = U-937, read-out: U937 Zvad TNF CTG Recovery, U937, TNFa + zVAD (IC50), U937 cells, TNFa + zVAD

Sequence of RIPK1 (Q13546 whole entry, species assumed): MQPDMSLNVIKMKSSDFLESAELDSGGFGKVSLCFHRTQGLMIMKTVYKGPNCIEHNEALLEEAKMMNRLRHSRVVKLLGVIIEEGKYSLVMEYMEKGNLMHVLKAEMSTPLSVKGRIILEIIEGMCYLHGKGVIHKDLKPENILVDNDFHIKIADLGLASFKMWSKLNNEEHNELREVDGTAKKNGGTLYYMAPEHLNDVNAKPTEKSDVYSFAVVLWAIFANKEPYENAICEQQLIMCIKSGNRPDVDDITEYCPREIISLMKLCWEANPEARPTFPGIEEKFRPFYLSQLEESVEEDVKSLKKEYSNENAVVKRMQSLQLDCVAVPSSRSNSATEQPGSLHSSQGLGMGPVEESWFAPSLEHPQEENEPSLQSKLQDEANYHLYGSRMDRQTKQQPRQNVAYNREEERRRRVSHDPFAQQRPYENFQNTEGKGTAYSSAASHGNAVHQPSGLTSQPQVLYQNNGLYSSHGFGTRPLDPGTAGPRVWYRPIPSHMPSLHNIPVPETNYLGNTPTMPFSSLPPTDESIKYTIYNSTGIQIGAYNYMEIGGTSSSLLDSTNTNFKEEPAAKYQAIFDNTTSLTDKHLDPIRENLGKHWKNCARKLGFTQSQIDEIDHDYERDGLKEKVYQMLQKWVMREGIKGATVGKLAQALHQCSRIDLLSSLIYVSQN

Row | SMILES | IC50 (RIPK1; [2]) | IC50 (U937 cells; [1]) | IC50 (RIPK1) | IC50 (U937 cells; [3]) | IC50 (L929 cells)
1 | CN1C(=O)[C@@H](NC(=O)c2n[nH]c(Cc3ccccc3)n2)COc2ccc(CCC(=O)Nc3ccc4[nH]ncc4c3)cc21 [Compound I-2, (S)—N-(7-(3-((1H-indazol-5-yl)amino)-3-oxopropyl)-5-methyl-4-oxo-2,3,4,5-tetrahydrobenzo[b][1,4]oxazepin-3-yl)-5-benzyl-1H-1,2,4-triazole-3-carboxamide] | 15.7 nM | 31.9 nM |  |  | 
2 | COc1cc2ncnc(NC(=O)CCc3ccc4c(c3)N(C)C(=O)[C@@H](NC(=O)c3n[nH]c(Cc5ccccc5)n3)CO4)c2cc1OC [Compound I-4, (S)-5-benzyl-N-(7-(3-((6,7-dimethoxyquinazolin-4-yl)amino)-3-oxopropyl)-5-methyl-4-oxo-2,3,4,5-tetrahydrobenzo[b][1,4]oxazepin-3-yl)-1H-1,2,4-triazole-3-carboxamide] | 56.8 nM | 29.3 nM |  |  | 
3 | CN1C(=O)[C@@H](NC(=O)c2n[nH]c(Cc3ccccc3)n2)COc2ccc(C#CC3(O)CCC3)cc21 [Compound I-51, (S)-5-benzyl-N-(7-((1-hydroxycyclobutyl)ethynyl)-5-methyl-4-oxo-2,3,4,5-tetrahydrobenzo[b][1,4]oxazepin-3-yl)-1H-1,2,4-triazole-3-carboxamide] | 31.7 nM |  |  |  | 
4 | CN1C(=O)[C@@H](NC(=O)c2cc(Oc3ccccc3)ccn2)COc2ccc(CN3CC4(CCOCC4)C3)cc21 [Compound I-150, (S)—N-(7-((7-oxa-2-azaspiro[3.5]nonan-2-yl)methyl)-5-methyl-4-oxo-2,3,4,5-tetrahydrobenzo[b][1,4]oxazepin-3-yl)-4-phenoxypicolinamide] |  | 83.1 nM | 44.7 nM |  | 
5 | COc1ccnc(C(=O)N[C@H]2COc3ccc(C#CC(C)(C)O)cc3N(C)C2=O)c1 [Compound I-163, (S)—N-(7-(3-hydroxy-3-methylbut-1-yn-1-yl)-5-methyl-4-oxo-2,3,4,5-tetrahydrobenzo[b][1,4]oxazepin-3-yl)-4-methoxypicolinamide] | 509 nM |  |  | 3320 nM | 
6 | CN1C(=O)[C@@H](NC(=O)c2cc(Oc3ccccc3)ccn2)COc2ccc(C#CC3(O)CS(=O)(=O)C3)cc21 [Compound I-209, (S)—N-(7-((3-hydroxy-1,1-dioxidothietan-3-yl)ethynyl)-5-methyl-4-oxo-2,3,4,5-tetrahydrobenzo[b][1,4]oxazepin-3-yl)-4-phenoxypicolinamide] | 106 nM |  |  | 59.5 nM | 
7 | CN1C(=O)[C@@H](NC(=O)c2cc(Oc3ccccc3)ccn2)COc2ccc(C#CC(C)(C)N3CCS(=O)(=O)CC3)cc21 [Compound I-211, (S)—N-(7-(3-(1,1-Dioxidothiomorpholino)-3-methylbut-1-yn-1-yl)-5-methyl-4-oxo-2,3,4,5-tetrahydrobenzo[b][1,4]oxazepin-3-yl)-4-phenoxypicolinamide] |  | 1.1 nM |  |  | 44.8 nM
8 | CN1C(=O)[C@@H](NC(=O)n2cc(Cc3ccc(F)cc3F)cn2)COc2ccc(C#CC(C)(C)CO)cc21 [Compound I-239, (S)-4-(2,4-Difluorobenzyl)-N-(7-(4-hydroxy-3,3-dimethylbut-1-yn-1-yl)-5-methyl-4-oxo-2,3,4,5-tetrahydrobenzo[b][1,4]oxazepin-3-yl)-1H-pyrazole-1-carboxamide] |  | 8.8 nM |  |  | 218 nM

Continued, in another order:

Row | IC50 (RIPK1; [2]) | SMILES | IC50 (U937 cells; [1]) | IC50 (RIPK1) | IC50 (U937 cells; [3]) | IC50 (L929 cells)
9 | 189 nM | CN1C(=O)[C@@H](NC(=O)c2n[nH]c(Cc3ccccc3)n2)COc2ccc(CCC(=O)O)cc21 [Compound I-9, (S)-3-(3-(5-benzyl-1H-1,2,4-triazole-3-carboxamido)-5-methyl-4-oxo-2,3,4,5-tetrahydrobenzo[b][1,4]oxazepin-7-yl)propanoic acid] | 362 nM |  |  | 
10 | 53.9 nM | CN1C(=O)[C@@H](NC(=O)c2n[nH]c(Cc3ccccc3)n2)COc2ccc(CCC(=O)NC3CC3)cc21 [Compound I-13, (S)-5-benzyl-N-(7-(3-(cyclopropylamino)-3-oxopropyl)-5-methyl-4-oxo-2,3,4,5-tetrahydrobenzo[b][1,4]oxazepin-3-yl)-1H-1,2,4-triazole-3-carboxamide] | 13.8 nM |  |  | 
11 | 158 nM | CN1C(=O)[C@@H](NC(=O)c2n[nH]c(Cc3ccc(F)cc3F)n2)COc2ccc(CCC(=O)NC3CC3)cc21 [Compound I-27, (S)—N-(7-(3-(cyclopropylamino)-3-oxopropyl)-5-methyl-4-oxo-2,3,4,5-tetrahydrobenzo[b][1,4]oxazepin-3-yl)-5-(2,4-difluorobenzyl)-1H-1,2,4-triazole-3-carboxamide] | 69.7 nM |  |  | 
12 | 33.4 nM | CN1C(=O)[C@@H](NC(=O)c2n[nH]c(Cc3ccccc3)n2)COc2ccc(CCC(N)=O)cc21 [Compound I-31, (S)—N-(7-(3-amino-3-oxopropyl)-5-methyl-4-oxo-2,3,4,5-tetrahydrobenzo[b][1,4]oxazepin-3-yl)-5-benzyl-1H-1,2,4-triazole-3-carboxamide] | 33.7 nM |  |  | 
13 | 12400 nM | CN1C(=O)[C@@H](NC(=O)c2ccc(Oc3ccccc3)cn2)COc2ccc(C#CC(C)(C)O)cc21 [Compound I-121, (S)—N-(7-(3-hydroxy-3-methylbut-1-yn-1-yl)-5-methyl-4-oxo-2,3,4,5-tetrahydrobenzo[b][1,4]oxazepin-3-yl)-5-phenoxypicolinamide] | 30300 nM |  |  | 
14 | 12300 nM | CN1C(=O)[C@@H](NC(=O)c2ccc(Oc3ccc(F)cc3)cn2)COc2ccc(C#CC(C)(C)O)cc21 [Compound I-122, (S)-5-(4-fluorophenoxy)-N-(7-(3-hydroxy-3-methylbut-1-yn-1-yl)-5-methyl-4-oxo-2,3,4,5-tetrahydrobenzo[b][1,4]oxazepin-3-yl)picolinamide] | 40400 nM |  |  | 
15 | 173 nM | CN1C(=O)[C@@H](NC(=O)c2cc(Oc3ccc(F)cc3)ccn2)COc2ccc(C#CC3(O)CCNCC3)cc21 [Compound I-133, (S)-4-(4-fluorophenoxy)-N-(7-((4-hydroxypiperidin-4-yl)ethynyl)-5-methyl-4-oxo-2,3,4,5-tetrahydrobenzo[b][1,4]oxazepin-3-yl)picolinamide] | 492 nM |  |  | 
16 | 36.2 nM | CN1C(=O)[C@@H](NC(=O)c2cc(Oc3ccccc3)ccn2)COc2ccc(C#CC(=O)O)cc21 [Compound I-161, (S)-3-(5-methyl-4-oxo-3-(4-phenoxypicolinamido)-2,3,4,5-tetrahydrobenzo[b][1,4]oxazepin-7-yl)propiolic acid] | 45.5 nM |  |  | 
17 | 54.4 nM | COc1ccnc(C(=O)N[C@H]2COc3ccc(C#CC4(O)COC4)cc3N(C)C2=O)c1 [Compound I-162, (S)—N-(7-((3-hydroxyoxetan-3-yl)ethynyl)-5-methyl-4-oxo-2,3,4,5-tetrahydrobenzo[b][1,4]oxazepin-3-yl)-4-methoxypicolinamide] | 1660 nM |  |  | 
18 | 518 nM | CN1C(=O)[C@@H](NC(=O)c2cc(Oc3ccc(C#N)cc3)ccn2)COc2cc(C#CC(C)(C)O)ccc21 [II-17, (S)-4-(4-cyanophenoxy)-N-(8-(3-hydroxy-3-methylbut-1-yn-1-yl)-5-methyl-4-oxo-2,3,4,5-tetrahydrobenzo[b][1,4]oxazepin-3-yl)picolinamide] | 1490 nM |  |  | 
19 | 1280 nM | COc1cccc(-c2ccnc(C(=O)N[C@H]3COc4ccc(C#CC(C)(C)O)cc4N(C)C3=O)c2)c1 [II-23, (S)—N-(7-(3-hydroxy-3-methylbut-1-yn-1-yl)-5-methyl-4-oxo-2,3,4,5-tetrahydrobenzo[b][1,4]oxazepin-3-yl)-4-(3-methoxyphenyl)picolinamide] | 545 nM |  |  | 
